# Reference: US20190358174A1, “ACTIVE AGENTS AGAINST PROTOZOA” (Christian-Albrechts-Universität zu Kiel, priority 2016, published 2019)
# Like-named read-outs stand apart in the source and are kept apart here.
# What was measured:
# FNT wild-type = molecular target: T1, FNT wild-type (Plasmodium falciparum, UniProt O77389); experiment: yeast test system, 14C-L-lactate uptake, FNT wild-type expressed in Saccharomyces cerevisiae; format: cell-based
# T1 construct: expressed in transfected cells; host or cells: Saccharomyces cerevisiae W303-1A jen1Δ ady2Δ, plasmid pDR196 (PMA promoter)
# T1 sequence (O77389 whole entry): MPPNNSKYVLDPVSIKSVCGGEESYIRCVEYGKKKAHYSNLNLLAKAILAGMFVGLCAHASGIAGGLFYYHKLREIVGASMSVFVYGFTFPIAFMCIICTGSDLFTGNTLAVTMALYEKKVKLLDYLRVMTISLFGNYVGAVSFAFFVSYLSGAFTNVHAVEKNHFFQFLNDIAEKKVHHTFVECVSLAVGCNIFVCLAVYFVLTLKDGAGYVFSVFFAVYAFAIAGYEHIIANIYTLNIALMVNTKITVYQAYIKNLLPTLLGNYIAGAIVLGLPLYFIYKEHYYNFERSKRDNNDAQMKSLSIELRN
# Description: (§1) The FNT of the wild-type plasmodium (available under accession number PF3D7_0316600 in the data bank PlasmoDB) and of the resistant plasmodia (position of the mutation in the open reading frame: guanine 319 to adenine) were expressed in the yeast Saccharomyces cerevisiae W303-1A jen1Δ ady2Δ from plasmid pDR196 (PMA promoter). In the yeast, the endogenous genes for the monocarboxylate transporter Jenlp (sequence accession No. CAA82062 NCBI) and Ady2p (sequence accession No. KZV 12856) were deleted (obtained from M. Casal, Universidade do Minho, Portugal).
# This yeast was grown in SD medium with addition of adenine, histidine, leucine, tryptophan and 2% (wt/v) glucose at 30° C. up to an OD600 of 0.8 to 1.0, harvested by centrifugation and washed once with water and centrifuged down again, and suspended in 50 mM HEPES/TRIS (pH 6.8) and adjusted to an OD600 of 50±10% and stored on ice. For contacting with one of the compounds a compound of one step of a dilution series in DMSO was provided in a reaction vessel and onto this 80 μL of the yeast suspension were pipetted. […] The lactate concentration obtained was 1 mM. After an incubation of 30 s the uptake of lacatate was stopped by a rapid dilution by means of adding of 1 ml ice cold water. From the yeast suspension diluted this way the yeast cells were brought onto a filter membrane by vacuum filtration, washed with 7 ml cold water and transferred with the filter membrane into 3 ml scintillation cocktail. After 24 h of incubation at 18° C. in the scintillation cocktail, in which the cells were lysed, the amount of radioactively labelled lactate was measured by means of a scintillation counter. The total amount of lactate which was taken up by the yeast was calculated from the measured amount of radioactively labelled lactate. As a positive control the yeast was treated equally in parallel testing with DMSO without one of the compounds and was regarded as 100% FNT activity, respectively 0% inhibition. In testings with the compound a lower amount of lactate taken up was found in comparison to the parallel positive control. As a negative control yeast was treated in parallel in which the endogenous genes for the monocarboxylate transporters Jenlp and Ady2p were deleted, but the FNT from plasmodium was not expressed. This negative control was regarded as 0% FNT activity, respectively 100% inhibition.
# (§2) As a representative for a Formiate-Nitrit-Transporter protein (FNT) from protozoa, the FNT of Plasmodium falciparum as wild-type and as […] mutant was used, which were each expressed in yeast and incubated with dilutions of the compounds to be tested as described in Example 1.
# Gly107Ser mutant of FNT = molecular target: T2, Gly107Ser mutant of FNT (Plasmodium falciparum, UniProt O77389, G107S); experiment: yeast test system, 14C-L-lactate uptake, FNT Gly107Ser mutant expressed in Saccharomyces cerevisiae; format: cell-based
# T2 construct: expressed in transfected cells; host or cells: Saccharomyces cerevisiae W303-1A jen1Δ ady2Δ, plasmid pDR196 (PMA promoter)
# T2 sequence (O77389 whole entry G107S): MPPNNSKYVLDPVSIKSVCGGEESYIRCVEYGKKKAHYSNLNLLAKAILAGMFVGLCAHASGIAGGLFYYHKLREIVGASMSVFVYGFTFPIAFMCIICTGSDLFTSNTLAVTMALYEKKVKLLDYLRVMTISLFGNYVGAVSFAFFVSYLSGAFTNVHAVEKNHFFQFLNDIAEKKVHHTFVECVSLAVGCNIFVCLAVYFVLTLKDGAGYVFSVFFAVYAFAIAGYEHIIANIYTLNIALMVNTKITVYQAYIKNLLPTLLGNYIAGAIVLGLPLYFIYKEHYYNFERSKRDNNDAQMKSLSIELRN
# Description: as §1
# This yeast was grown in SD medium with addition of adenine, histidine, leucine, tryptophan and 2% (wt/v) glucose at 30° C. up to an OD600 of 0.8 to 1.0, harvested by centrifugation and washed once with water and centrifuged down again, and suspended in 50 mM HEPES/TRIS (pH 6.8) and adjusted to an OD600 of 50±10% and stored on ice. For contacting with one of the compounds a compound of one step of a dilution series in DMSO was provided in a reaction vessel and onto this 80 μL of the yeast suspension were pipetted. After an incubation on ice for 15 to 20 min 20 μL 5 mM Na-L-lacate plus 0.04 μCi radioactively labelled L-(1-^14C) lactate was added. The lactate concentration obtained was 1 mM. After an incubation of 30 s the uptake of lacatate was stopped by a rapid dilution by means of adding of 1 ml ice cold water. From the yeast suspension diluted this way the yeast cells were brought onto a filter membrane by vacuum filtration, washed with 7 ml cold water and transferred with the filter membrane into 3 ml scintillation cocktail. After 24 h of incubation at 18° C. in the scintillation cocktail, in which the cells were lysed, the amount of radioactively labelled lactate was measured by means of a scintillation counter. The total amount of lactate which was taken up by the yeast was calculated from the measured amount of radioactively labelled lactate. As a positive control the yeast was treated equally in parallel testing with DMSO without one of the compounds and was regarded as 100% FNT activity, respectively 0% inhibition. In testings with the compound a lower amount of lactate taken up was found in comparison to the parallel positive control. As a negative control yeast was treated in parallel in which the endogenous genes for the monocarboxylate transporters Jenlp and Ady2p were deleted, but the FNT from plasmodium was not expressed. This negative control was regarded as 0% FNT activity, respectively 100% inhibition.
# as §2
# Plasmodium falciparum = experiment: growth of Plasmodium falciparum culture (parasitaemia by FACS); format: cell-based
# Description: The effect of the following compounds on the growth of Plasmodium falciparum was tested using cultivated plasmodia:
# The plasmodium culture was maintained in 5% 0+ erythrocytes in RPMI 1640 medium with 0.5% Albumax at 37° C. […] A change of medium was made after 24 h and the compounds were added freshly.
# [1] = system: resistant plasmodia (FNT mutation Gly107Ser); experiment: microbe, parasite or virus in culture; format: cell-based, Plasmodium falciparum; conditions: for IC50: Plasmodium falciparum, read-out: plasmodium culture IC50 against Gly107Ser mutant
# [2] = yeast test system, 15 to 20 min preincubation, 1 mM lactate, pH 6.8, read-out: IC50 against FNT wild-type
# [3] = Plasmodium falciparum; read-out: plasmodium culture IC50 against wild-type
# [4] = Plasmodium falciparum; 48 h after addition, parasitaemia by FACS; read-out: inhibitory effect IC50 on the growth of the plasmodium culture
smiles,measurement,setting,value
CC(=O)C=C(O)C(F)(F)C(F)(F)F [BH-204],IC50,FNT wild-type; [2],1.9 µM
same,IC50,"Gly107Ser mutant of FNT; yeast test system, 15 to 20 min preincubation, 1 mM lactate, pH 6.8, read-out: IC50 against Gly107Ser mutant of FNT",8.1 µM
CC(C)(O)CC(=O)/C=C(\O)C(F)(F)C(F)(F)F [BH-262],IC50,Plasmodium falciparum; [3],10 µM
same,IC50,[1],70 µM
Cn1ccc(C(=O)/C=C(\O)C(F)(F)C(F)(F)F)c1 [BH-269],IC50,Gly107Ser mutant of FNT,15 µM
O=C(/C=C(\O)C(F)(F)C(F)(F)F)/C=C/c1ccccc1 [BH-292],IC50,FNT wild-type; [2],0.26 µM
same,IC50,Gly107Ser mutant of FNT,25 µM
COc1ccc(C(=O)/C=C(\O)C(F)(F)C(F)(F)F)cc1 [BH-296],IC50,Plasmodium falciparum; [3],3.4 µM
same,IC50,[1],8.9 µM
same,effect against the resistant parasites (in words),[1]; pharmaceutically acceptable concentration range,effective against the resistant parasites
same,IC50,FNT wild-type; [2],0.14 µM
same,inhibition of the Gly107Ser mutant (in words),Gly107Ser mutant of FNT,inhibit the Gly107Ser mutant significantly
O=C(/C=C(\O)C(F)(F)C(F)(F)F)c1ccc(Cl)cc1 [BH-301],IC50,FNT wild-type,0.12 µM
same,IC50,Gly107Ser mutant of FNT,5.8 µM
same,inhibition of the Gly107Ser mutant (in words),Gly107Ser mutant of FNT,inhibit the Gly107Ser mutant significantly
O=C(/C=C(\O)C(F)(F)C(F)(F)F)c1cc2ccccc2o1 [BH-306],IC50,FNT wild-type; [2],0.18 µM
same,IC50,Gly107Ser mutant of FNT,15 µM
O=C(/C=C(\O)C(F)(F)C(F)(F)F)c1ccc(Cl)cc1O [BH-317],inhibition of the plasmodium culture (in words),Plasmodium falciparum,effective inhibition
same,IC50,Plasmodium falciparum; [3],0.37 µM
same,inhibition of the FNT in the yeast test system (in words),FNT wild-type,effective inhibition
same,IC50,FNT wild-type; [2],0.12 µM
COc1ccc(CCC(=O)/C=C(\O)C(F)(F)C(F)(F)F)cc1 [BH-324.2],IC50,FNT wild-type,0.16 µM
same,IC50,Gly107Ser mutant of FNT,6.3 µM
same,inhibition of the Gly107Ser mutant (in words),Gly107Ser mutant of FNT,inhibit the Gly107Ser mutant significantly
CCOc1ccc(C(=O)/C=C(\O)C(F)(F)C(F)(F)F)c(O)c1 [BH-326],inhibition of the plasmodium culture (in words),Plasmodium falciparum,effective inhibition
same,IC50,Plasmodium falciparum; [3],0.05 µM
same,inhibition of the FNT in the yeast test system (in words),FNT wild-type,effective inhibition
same,IC50,FNT wild-type; [2],0.24 µM
CC(C)Oc1ccc(C(=O)/C=C(\O)C(F)(F)C(F)(F)F)c(O)c1 [BH-340],inhibition of the plasmodium culture (in words),Plasmodium falciparum,effective inhibition
same,IC50,Plasmodium falciparum; [3],0.1 µM
same,inhibition of the FNT in the yeast test system (in words),FNT wild-type,effective inhibition
same,IC50,FNT wild-type; [2],0.4 µM
COc1ccc(C(=O)/C=C(\O)C(F)(F)C(F)(F)C(F)(F)F)c(O)c1 [BH-362],IC50,"Plasmodium falciparum; Plasmodium falciparum, read-out: plasmodium culture IC50 against wild-type",0.57 µM
same,IC50,FNT wild-type; [2],0.25 µM
O=C(/C=C(\O)C(F)(F)C(F)(F)F)c1ccc(OCc2ccccc2)cc1O [BH-388],IC50,FNT wild-type; [2],0.89 µM
"O=C1CC(O)(C(F)(F)C(F)(F)F)Oc2ccccc21 (stereo not shown) [MMV000972, reference compound]",IC50,Plasmodium falciparum; [4],1.7 µM
"COc1ccc2c(c1)OC(O)(C(F)(F)C(F)(F)F)CC2=O (stereo not shown) [MMV007839, reference compound]",IC50,Plasmodium falciparum; [4],0.14 µM
same,IC50,"FNT wild-type; preincubation 20 min, read-out: IC50 of lactate transport",0.17 µM
same,IC50,"FNT wild-type; preincubation 24 h prior to addition of lactate, read-out: IC50 of lactate transport",0.015 µM
same,reversibility of FNT inhibition by washing of the cells,"FNT wild-type; washing with 50 mM HEPES-Tris, pH 6.8",could not be reduced by washing
